Here are results for 35 substances from patent US7125679B2, “Methods to screen peptide libraries using minicell display” (Children's Medical Center Corporation, priority 2001, dated 2006).

The target of one assay is T1, alpha4 integrin (Homo sapiens, UniProt P13612).
T1 sequence (P13612 34-1032): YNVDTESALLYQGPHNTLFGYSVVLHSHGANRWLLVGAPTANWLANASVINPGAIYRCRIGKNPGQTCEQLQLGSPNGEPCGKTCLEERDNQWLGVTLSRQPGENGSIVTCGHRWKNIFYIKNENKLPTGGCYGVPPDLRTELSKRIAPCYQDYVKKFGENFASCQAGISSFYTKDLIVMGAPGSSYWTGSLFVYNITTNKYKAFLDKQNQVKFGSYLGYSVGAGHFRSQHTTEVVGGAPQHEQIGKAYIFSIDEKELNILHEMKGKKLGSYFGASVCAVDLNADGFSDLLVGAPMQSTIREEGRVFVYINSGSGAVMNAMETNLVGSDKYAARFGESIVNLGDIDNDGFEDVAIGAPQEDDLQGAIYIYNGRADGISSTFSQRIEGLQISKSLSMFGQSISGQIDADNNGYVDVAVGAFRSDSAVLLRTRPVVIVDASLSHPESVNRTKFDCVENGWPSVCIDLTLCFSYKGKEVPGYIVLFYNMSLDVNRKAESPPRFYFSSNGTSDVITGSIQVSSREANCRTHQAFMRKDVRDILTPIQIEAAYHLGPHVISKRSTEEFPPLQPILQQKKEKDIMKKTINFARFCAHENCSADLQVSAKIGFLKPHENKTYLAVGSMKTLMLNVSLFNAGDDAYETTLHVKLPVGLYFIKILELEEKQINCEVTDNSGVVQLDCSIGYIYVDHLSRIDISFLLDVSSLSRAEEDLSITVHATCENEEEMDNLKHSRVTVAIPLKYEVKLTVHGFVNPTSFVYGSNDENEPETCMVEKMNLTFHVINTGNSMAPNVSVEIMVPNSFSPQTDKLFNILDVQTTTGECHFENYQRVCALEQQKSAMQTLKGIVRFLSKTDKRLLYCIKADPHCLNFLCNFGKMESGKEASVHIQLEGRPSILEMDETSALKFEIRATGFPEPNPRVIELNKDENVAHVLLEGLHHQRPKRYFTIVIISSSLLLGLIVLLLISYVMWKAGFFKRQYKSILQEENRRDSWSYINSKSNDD
Description: alpha4 integrin binding.

In the next assay the test system is angiogenesis. Description: Anti-angiogenic activity.
Another assay has as its system cell entry of peptides. Description: Cell entry of peptides. It is filed as cell-based.
For assay [1], the system named is tumor cells. Description: Apoptosis of tumor cells. It is filed as cell-based. The source says:
Many cells may undergo programmed cell death which is a genetically mediated form of self destruction. This phenomenon is commonly referred to in the art as apoptosis. Frequently, apoptotic cells may be recognized by changes in their biochemical, morphological and molecular features. Morphological changes include, but are not limited to, cell shape change, cell shrinkage, cell detachment, apoptotic bodies, nuclear fragmentation, nuclear envelope changes and loss of cell surface structures. Biochemical changes may include proteolysis, protein cross linking, DNA denaturation, cell dehydration, intranucleosomal cleavage and a rise in free calcium ions. Such characteristics are easily identifiable by methods well established in the art. Peptides isolated by the disclosed mini-cell display method are tested for their effects on such physiological and biochemical processes.

A further assay concerns the target T2, β3 (Homo sapiens, UniProt P05106).
T2 sequence (P05106 27-788): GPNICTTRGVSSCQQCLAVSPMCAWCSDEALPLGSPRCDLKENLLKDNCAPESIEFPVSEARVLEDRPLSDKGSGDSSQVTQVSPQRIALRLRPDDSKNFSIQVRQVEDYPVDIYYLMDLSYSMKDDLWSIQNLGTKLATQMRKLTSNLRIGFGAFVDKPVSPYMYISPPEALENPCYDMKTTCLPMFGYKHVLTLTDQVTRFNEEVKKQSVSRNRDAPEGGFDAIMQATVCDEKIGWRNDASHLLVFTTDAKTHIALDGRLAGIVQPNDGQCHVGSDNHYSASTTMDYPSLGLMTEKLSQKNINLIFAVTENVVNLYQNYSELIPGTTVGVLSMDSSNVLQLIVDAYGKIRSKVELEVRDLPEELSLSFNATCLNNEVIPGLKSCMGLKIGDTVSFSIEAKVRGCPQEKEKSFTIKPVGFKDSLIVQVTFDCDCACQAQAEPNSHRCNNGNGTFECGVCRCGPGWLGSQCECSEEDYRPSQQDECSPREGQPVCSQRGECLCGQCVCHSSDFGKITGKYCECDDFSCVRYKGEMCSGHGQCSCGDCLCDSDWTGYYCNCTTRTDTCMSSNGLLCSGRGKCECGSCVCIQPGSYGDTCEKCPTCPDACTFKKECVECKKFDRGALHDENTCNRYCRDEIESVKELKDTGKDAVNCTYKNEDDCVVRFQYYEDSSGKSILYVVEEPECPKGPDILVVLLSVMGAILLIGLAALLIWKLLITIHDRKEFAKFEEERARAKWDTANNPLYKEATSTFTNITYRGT
Description: β3 attachment. It is filed as cell-based.

A further assay deals with melanoma cell. Description: Melanoma cell attachment. The assay is classed as cell-based.
A further assay concerns the target Fibronectin receptor (Homo sapiens, UniProt P05556+P08648). Description: Fibronectin receptor binding.
The test system of a further assay is collagenase. Description: Collagenase induction. The assay is classed as cell-based.
For assay [2], the system named is tumor cells. Description: Homotypic aggregation of tumor cells. The assay is classed as cell-based.
In assay [3] the test system is neutrophils, endothelium, fibrosarcomas melanoma. Description: Attachment of neutrophils, endothelium, fibrosarcomas, melanoma. The assay is classed as cell-based.
Another assay has as its system cell-cell adhesion. Description: Cell-cell adhesion. It is filed as cell-based.
Another assay deals with fibroblast. Description: Fibroblast attachment. It is filed as cell-based.
A further assay deals with Endothelial cell. Description: Endothelial cell attachment. It is filed as cell-based.
A further assay concerns alphavbetax. Description: Cell attachment, alphavbetax specific. It is filed as cell-based.
The next assay deals with β integrin. Description: β integrin binding.

Chain of Fibronectin receptor (P08648 42-894 limits assumed): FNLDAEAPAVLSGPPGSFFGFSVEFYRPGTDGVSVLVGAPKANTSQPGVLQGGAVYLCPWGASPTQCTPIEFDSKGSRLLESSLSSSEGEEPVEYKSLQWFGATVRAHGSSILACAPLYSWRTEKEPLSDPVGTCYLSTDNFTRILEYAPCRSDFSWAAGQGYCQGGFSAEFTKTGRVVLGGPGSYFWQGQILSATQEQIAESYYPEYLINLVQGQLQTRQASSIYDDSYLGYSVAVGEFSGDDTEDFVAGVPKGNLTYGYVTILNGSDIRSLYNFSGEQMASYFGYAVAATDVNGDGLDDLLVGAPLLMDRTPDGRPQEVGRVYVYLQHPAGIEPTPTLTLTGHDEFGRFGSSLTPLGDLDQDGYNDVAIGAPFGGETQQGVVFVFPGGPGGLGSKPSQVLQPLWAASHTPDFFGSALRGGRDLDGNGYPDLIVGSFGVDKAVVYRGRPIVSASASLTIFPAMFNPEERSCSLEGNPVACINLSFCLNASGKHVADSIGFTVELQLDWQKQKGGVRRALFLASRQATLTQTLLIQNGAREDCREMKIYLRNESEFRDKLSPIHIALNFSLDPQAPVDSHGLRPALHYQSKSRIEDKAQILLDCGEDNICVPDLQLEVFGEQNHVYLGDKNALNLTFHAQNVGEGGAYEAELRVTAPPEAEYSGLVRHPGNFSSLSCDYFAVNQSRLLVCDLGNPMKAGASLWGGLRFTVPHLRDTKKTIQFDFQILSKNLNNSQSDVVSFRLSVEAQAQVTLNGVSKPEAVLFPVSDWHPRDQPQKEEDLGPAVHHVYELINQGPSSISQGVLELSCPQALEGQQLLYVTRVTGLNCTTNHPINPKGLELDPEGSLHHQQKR
Chain of Fibronectin receptor (P08648 895-1049 limits assumed): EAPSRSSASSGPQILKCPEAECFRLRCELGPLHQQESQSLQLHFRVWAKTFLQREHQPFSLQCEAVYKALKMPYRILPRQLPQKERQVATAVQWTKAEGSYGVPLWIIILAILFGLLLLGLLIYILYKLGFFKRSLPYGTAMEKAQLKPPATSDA
Chain of Fibronectin receptor (P05556 21-798): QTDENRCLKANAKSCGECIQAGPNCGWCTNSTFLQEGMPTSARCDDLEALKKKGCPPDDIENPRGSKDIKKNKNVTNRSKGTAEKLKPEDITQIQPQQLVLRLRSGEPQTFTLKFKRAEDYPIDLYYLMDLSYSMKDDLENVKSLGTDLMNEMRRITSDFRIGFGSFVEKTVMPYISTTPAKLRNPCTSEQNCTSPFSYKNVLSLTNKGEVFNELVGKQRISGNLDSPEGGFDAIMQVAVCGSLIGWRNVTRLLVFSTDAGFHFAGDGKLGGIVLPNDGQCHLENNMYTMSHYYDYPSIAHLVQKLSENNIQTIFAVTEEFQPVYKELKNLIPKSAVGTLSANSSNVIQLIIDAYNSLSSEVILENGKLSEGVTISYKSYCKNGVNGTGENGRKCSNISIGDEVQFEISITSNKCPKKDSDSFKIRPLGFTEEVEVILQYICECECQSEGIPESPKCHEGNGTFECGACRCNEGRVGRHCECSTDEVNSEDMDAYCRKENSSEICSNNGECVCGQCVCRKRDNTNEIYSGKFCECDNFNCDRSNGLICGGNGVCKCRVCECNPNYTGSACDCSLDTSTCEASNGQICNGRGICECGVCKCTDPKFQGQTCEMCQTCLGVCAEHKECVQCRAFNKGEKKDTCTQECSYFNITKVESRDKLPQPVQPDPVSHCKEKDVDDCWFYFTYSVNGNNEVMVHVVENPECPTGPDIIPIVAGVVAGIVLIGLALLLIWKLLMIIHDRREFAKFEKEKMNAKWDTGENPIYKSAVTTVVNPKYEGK

Regarding “AADVESPS (Inhibits alpha 4 integrin binding.)”, the “FUNCTIONAL ACTIVITY: Inhibits alpha4 integrin binding” value with alpha4 integrin is reported as “Inhibits alpha4 integrin”.
ATWLPPR (Anti-angiogenic.): the “FUNCTIONAL ACTIVITY: Anti-angiogenic” value in the assay on angiogenesis is “Anti-angiogenic”.
With “CVVVLVL (Promotes cell entry of peptides.)”, the “FUNCTIONAL ACTIVITY: Promotes cell entry of peptides” value in the assay with cell entry of peptides is reported as “Promotes cell entry of peptides”.
For the substance “DGGRGDSLGWYRRGRGGARRSKAKKAAAKNNQKSEPLIGRKKT (Apoptotic to tumor cells.)”, the “FUNCTIONAL ACTIVITY: Apoptotic to tumor cells” value in the assay on tumor cells [1] is reported as “Apoptotic to tumor cells”.
Take DKKELAKFQAERSAAS (beta 3 attachment.): the “FUNCTIONAL ACTIVITY: β3 attachment” value with β3 is listed as “β3 attachment”.
As for “DRYLKFRPV (Inhibits melanoma cell attachment.)”, the “FUNCTIONAL ACTIVITY: Inhibits melanoma cell attachment” value with melanoma cell is “Inhibits melanoma cell”.
“DSVAYGLKSK (Inhibitor of heparin binding.)”: the “FUNCTIONAL ACTIVITY: Inhibits heparin binding” value in the assay “Heparin binding” is “Inhibits heparin binding”.
Turning to “DSVAYGLKSRSK (Inhibitor of heparin binding.)”, the “FUNCTIONAL ACTIVITY: Inhibits heparin binding” value in the assay “Heparin binding” is “Inhibits heparin binding”.
On to “DSVVYGLRSK (Inhibitor of heparin binding.)”, for which the “FUNCTIONAL ACTIVITY: Inhibits heparin binding” value in “Heparin binding” is “Inhibits heparin binding”.
Regarding “EPEESDVGGAADYP (Inhibits alpha 4 integrin binding.)”, the “FUNCTIONAL ACTIVITY: Inhibits alpha4 integrin binding” value in the assay with alpha4 integrin is listed as “Inhibits alpha4 integrin”.
Turning to “GRGDNPS (Fibronectin receptor binding collagenase induction.)”, the “FUNCTIONAL ACTIVITY: Fibronectin receptor binding” value with Fibronectin receptor is “Fibronectin receptor binding”. Further, the “FUNCTIONAL ACTIVITY: collagenase induction” value in the assay on collagenase was “collagenase induction”.
In the case of HDRKEFAKFEEEERARA (beta 3 attachment.), the “FUNCTIONAL ACTIVITY: β3 attachment” value with β3 is “β3 attachment”.
On the same count and under the same terms, the same measure for HDRKEVAKFEAERSKA (beta 3 attachment.): “β3 attachment”; for HDRREFAKFQSERSRA (beta 3 attachment.): “β3 attachment”.
Regarding “HGRFILPWWYAFSPS (Inhibits homotypic aggregation of tumor cells.)”, the “FUNCTIONAL ACTIVITY: Inhibit homotypic aggregation of tumor cells” value in the assay with tumor cells [2] is on record as “Inhibit homotypic aggregation”.
For “HKFVHWKKPVLPSQNNQ (Inhibits melanoma cell attachment.)”, the “FUNCTIONAL ACTIVITY: Inhibits melanoma cell attachment” value in the assay with melanoma cell is listed as “Inhibits melanoma cell”.
Take “KGMNYTVR (Inhibits neutrophils, endothelium, fibro- sarcomas, melanoma attachment.)”: the “FUNCTIONAL ACTIVITY: Inhibits, neutrophils, endothelium, fibrosarcomas melanoma attachment” value in assay [3] is “Inhibits, neutrophils,”.
For KKAKKSRRS (Anti-adhesion (cell-cell).), in the assay on cell-cell adhesion, the “FUNCTIONAL ACTIVITY: Anti-adhesion (cell-cell)” value is “Anti-adhesion (cell-cell)”.
Consider KKGKKSKRS (Anti-adhesion (cell-cell).), for which, in the assay on cell-cell adhesion, the “FUNCTIONAL ACTIVITY: Anti-adhesion (cell-cell)” value is recorded as “Anti-adhesion (cell-cell)”.
As for “KRSR: bioactive peptide isolated by minicell display (Apoptotic to tumor cells.)”, the “FUNCTIONAL ACTIVITY: Apoptotic to tumor cells” value with tumor cells [1] is “Apoptotic to tumor cells”.
Take “LDSAS: bioactive peptide isolated by minicell display (Inhibits alpha 4 integrin binding.)”: the “FUNCTIONAL ACTIVITY: Inhibits alpha4 integrin binding” value with alpha4 integrin is “Inhibits alpha4 integrin”.
As to “LDSPPAALS (Inhibits alpha 4 integrin binding.)”, the “FUNCTIONAL ACTIVITY: Inhibits alpha4 integrin binding” value in the assay with alpha4 integrin is listed as “Inhibits alpha4 integrin”.
On to “LVPSSKGRGDYLAQSQP (Fibronectin receptor binding collagenase induction.)”, for which the “FUNCTIONAL ACTIVITY: Fibronectin receptor binding” value with Fibronectin receptor is “Fibronectin receptor binding”. In addition, the “FUNCTIONAL ACTIVITY: collagenase induction” value in the assay with collagenase is “collagenase induction”.
Regarding “PNGRGESLAY (Inhibits fibroblast attachment, inhibits collagenase induction.)”, in the assay with fibroblast, the “FUNCTIONAL ACTIVITY: Inhibits fibroblast attachment” value is “Inhibits fibroblast attachment,”. In addition, the “FUNCTIONAL ACTIVITY: inhibits collagenase induction” value in the assay on collagenase is reported as “inhibits collagenase induction”.
Consider “QESPSGTDLLVAGSSP (Inhibits alpha 4 integrin binding.)”, for which, in the assay with alpha4 integrin, the “FUNCTIONAL ACTIVITY: Inhibits alpha4 integrin binding” value was “Inhibits alpha4 integrin”.
“QSWKKQGSPSSPQRRSKGGRKP (beta 3 attachment.)”: in the assay with β3, the “FUNCTIONAL ACTIVITY: β3 attachment” value is on record as “β3 attachment”.
Regarding QVGLKPLV (Anti-angiogenic.), in the assay with angiogenesis, the “FUNCTIONAL ACTIVITY: Anti-angiogenic” value is recorded as “Anti-angiogenic”.
For “RRSRSSTGKKQKSSQSRKTA (Anti-adhesion (cell-cell))”, the “FUNCTIONAL ACTIVITY: Anti-adhesion (cell-cell)” value with cell-cell adhesion is “Anti-adhesion (cell-cell)”.
Turning to “SDQDNNGKGSHES (Endothelial cell attachment.)”, in the assay with Endothelial cell, the “FUNCTIONAL ACTIVITY: Endothelial cell attachment” value is reported as “Endothelial cell attachment”.
On to “SDQDQDGDGHQDS (Endothelial cell attachment.)”, for which, in the assay on Endothelial cell, the “FUNCTIONAL ACTIVITY: Endothelial cell attachment” value is listed as “Endothelial cell attachment”.
For “SDV: bioactive peptide isolated by minicell display (Inhibits alpha 4 integrin binding.)”, in the assay with alpha4 integrin, the “FUNCTIONAL ACTIVITY: Inhibits alpha4 integrin binding” value was “Inhibits alpha4 integrin”.
For “TPFIPTESANDGRGDSVAW (Cell attachment/ alpha v beta x specific.)”, the “FUNCTIONAL ACTIVITY: Cell attachment/alphavbetax specific” value in the assay on alphavbetax is “Cell attachment/a1phavbetax”.
As to TPTVRGAAGSGNQN (Anti-angiogenic), the “FUNCTIONAL ACTIVITY: Anti-angiogenic” value in the assay with angiogenesis was “Anti-angiogenic”.
Turning to “TPVVPTVDTYDGRGDSLAY (beta integrin binding.)”, in the assay with β integrin, the “FUNCTIONAL ACTIVITY: β integrin binding” value is given as “β integrin binding”.
For “WTGGDDSGSPSSPS (Inhibits alpha 4 integrin binding.)”, the “FUNCTIONAL ACTIVITY: Inhibits alpha4 integrin binding” value with alpha4 integrin was “Inhibits alpha4 integrin”.
